From patent US20230146455A1, “TREATMENT OF INFLAMMATORY DISEASES WITH PEPTIDES AND PHARMACEUTICAL COMPOSITIONS” (Yuyu Pharma, Inc., priority 2020, published 2023)
Several values for one entry are separate records, joined by “and”; a condition that tells them apart may be missing. Equal values may be shown once. Where a SMILES comes first, the peptide text is derived from it. [ ]: non-standard residue; d: D form. Hyp = O=C(O)[C@@H]1C[C@@H](O)CN1

Key:
MMP-9 = test: Example 9 Luminex, LPS hPBMCs: MMP-9; assay type: cell-based, human
Procedure: (§1) Treatment Human PBMCs were pretreated with YY-101, YDE-011 and YDE-043 or reference compound; Xiidra® at various concentration (ranging from 1 nM to 100 uM) for 2 h before stimulation. An equal volume of 0.5% DMSO was used as a vehicle control. Then, the cells were treated with LPS at 5 ug/ml. The supernatants from treated cells were harvested at 24 h and placed in a 96 well for Luminex cytokine & chemokine profiling using a Luminex 200 multiplex assay (Luminex; R&D system, USA).
(§2) The main study arm with triplicate wells per group in a 24-well plate: • 1. Blank • 2. PBMC: 0.5% DMSO • 3. PBMC+LPS (5 ug/ml) • 4. PBMC+YY-101 100 uM • 5. PBMC+YY-101 10 uM • 6. PBMC+YY-101 1 uM • 7. PBMC+YY-101 0.1 uM • 8. PBMC+YY-101 0.01 uM • 9. PBMC+LPS (5 ug/ml)+Xiidra®100 uM • 10. PBMC+LPS (5 ug/ml)+Xiidra® 10 uM • 11. PBMC+LPS (5 ug/ml)+Xiidra® 1 uM • 12. PBMC+LPS (5 ug/ml)+Xiidra®0.1 uM • 13. PBMC+LPS (5 ug/ml)+Xiidra®0.01 uM • 14. PBMC+LPS (5 ug/ml)+Xiidra®0.001 uM • 15. PBMC+LPS (5 ug/ml)+YY-101 100 uM • 16. PBMC+LPS (5 ug/ml)+YY-101 10 uM • 17. PBMC+LPS (5 ug/ml)+YY-101 1 uM • 18. PBMC+LPS (5 ug/ml)+YY-101 0.1 uM • 19. PBMC+LPS (5 ug/ml)+YY-101 0.01 uM • 20. PBMC+LPS (5 ug/ml)+YY-101 0.001 uM • 21. PBMC+LPS (5 ug/ml)+YDE-011 100 uM • 22. PBMC+LPS (5 ug/ml)+YDE-011 10 uM • 23. PBMC+LPS (5 ug/ml)+YDE-011 1 uM • 24. PBMC+LPS (5 ug/ml)+YDE-011 0.1 uM • 25. PBMC+LPS (5 ug/ml)+YDE-011 0.01 uM • 26. PBMC+LPS (5 ug/ml)+YDE-011 0.001 uM • 27. PBMC+LPS (5 ug/ml)+YDE-043 100 uM • 28. PBMC+LPS (5 ug/ml)+YDE-043 10 uM • 29. PBMC+LPS (5 ug/ml)+YDE-043 1 uM • 30. PBMC+LPS (5 ug/ml)+YDE-043 0.1 uM • 31. PBMC+LPS (5 ug/ml)+YDE-043 0.01 uM • 32. PBMC+LPS (5 ug/ml)+YDE-043 0.001 uM
(§3) Multiplex assay was used to measure 30 cytokines and chemokines. The 1:2, 1:10 and 1:200 diluted cell supernatant and serial dilution of the standard were dispensed into a 96 well plate at 50 ul/well. Then, the pre-mixed cocktail of antibody-coated magnetic beads was dispensed at 50 ul/well and incubated at room temperature for 2 h in a horizontal orbital microplate shaker at 800±500 rpm. The beads were washed using a magnetic device to prevent loss. The biotin-antibody was dispensed in 50 ul of each well and incubated at room temperature for 1 h in a shaker at 800±500 rpm. After washing, streptavidin-PE was added at 50 ul/well and incubated at room temperature for 30 min in a shaker under the same conditions. Finally, after washing, wash buffer (100 ul/well) was added to the plate and incubated in a shaker for 2 min. The Luminex™ 200 setting were set according to the manufacturer's protocol. The data was calculated with a standard five-parameter logistic nonlinear regression analysis of the data (xPonent software 4.2, USA). The levels of cytokine/chemokine are normalized to the live cell counts (1×10^5 cells/mL) and presented as concentrations per mL (pg/mL or ng/mL).

CCL20/MIP-3 alpha = test: Example 9 Luminex, LPS hPBMCs: CCL20/MIP-3 alpha; assay type: cell-based, human
Procedure: as §1, §2, §3

[1] = PBMC + LPS(5 ug/ml) + 0.001 uM, Mean
[2] = PBMC + LPS(5 ug/ml) + 0.001 uM, single replicates
[3] = PBMC + LPS(5 ug/ml) + 0.01 uM, Mean
[4] = PBMC + LPS(5 ug/ml) + 0.01 uM, single replicates
[5] = PBMC + LPS(5 ug/ml) + 0.1 uM, Mean
[6] = PBMC + LPS(5 ug/ml) + 0.1 uM, single replicates
[7] = PBMC + LPS(5 ug/ml) + 1 uM, Mean
[8] = PBMC + LPS(5 ug/ml) + 1 uM, single replicates
[9] = PBMC + LPS(5 ug/ml) + 10 uM, Mean
[10] = PBMC + LPS(5 ug/ml) + 10 uM, single replicates
[11] = PBMC + LPS(5 ug/ml) + 100 uM, Mean
[12] = PBMC + LPS(5 ug/ml) + 100 uM, single replicates
[13] = PBMC + LPS(5 ug/ml) + test article 0.001 uM, Mean
[14] = PBMC + LPS(5 ug/ml) + test article 0.001 uM, individual replicate
[15] = PBMC + LPS(5 ug/ml) + test article 0.01 uM, Mean
[16] = PBMC + LPS(5 ug/ml) + test article 0.01 uM, individual replicate
[17] = PBMC + LPS(5 ug/ml) + test article 0.1 uM, Mean
[18] = PBMC + LPS(5 ug/ml) + test article 0.1 uM, individual replicate
[19] = PBMC + LPS(5 ug/ml) + test article 1 uM, Mean
[20] = PBMC + LPS(5 ug/ml) + test article 1 uM, individual replicate
[21] = PBMC + LPS(5 ug/ml) + test article 10 uM, Mean
[22] = PBMC + LPS(5 ug/ml) + test article 10 uM, individual replicate
[23] = PBMC + LPS(5 ug/ml) + test article 100 uM, Mean
[24] = PBMC + LPS(5 ug/ml) + test article 100 uM, individual replicate

In the case of `CC(C)C[C@H](NC(=O)[C@H](CCC(N)=O)NC(=O)CNC(=O)[C@@H]1C[C@@H](O)CN1)C(=O)NCC(=O)O` [YDE-043] (H-[Hyp]GQLG-OH; N-terminus and C-terminus assumed), the “MMP-9 Concentration” value (MMP-9; [1]) is reported as 222.6 pg/mL, the MMP-9 conc/live cell (MMP-9; [1]) is reported as 45.0 pg/10^5 and the “MMP-9 Concentration” value (MMP-9; [2]) is reported as 170.9 pg/mL and 234.0 pg/mL and 262.8 pg/mL. The MMP-9 conc/live cell (MMP-9; [2]) was 38.8 pg/10^5 and 39.0 pg/10^5 and 57.1 pg/10^5, the “MMP-9 Concentration” value (MMP-9; [3]) was 186.3 pg/mL and the MMP-9 conc/live cell (MMP-9; [3]) was 35.6 pg/10^5. The “MMP-9 Concentration” value (MMP-9; [4]) was 180.2 pg/mL and 186.3 pg/mL and 192.4 pg/mL, the MMP-9 conc/live cell (MMP-9; [4]) was 40.0 pg/10^5 and 28.2 pg/10^5 and 38.5 pg/10^5 and the “MMP-9 Concentration” value (MMP-9; [5]) was 173.9 pg/mL. For the same compound, the MMP-9 conc/live cell (MMP-9; [5]) was 32.4 pg/10^5, the “MMP-9 Concentration” value (MMP-9; [6]) was 192.4 pg/mL and 155.2 pg/mL and 174.0 pg/mL and the MMP-9 conc/live cell (MMP-9; [6]) was 38.5 pg/10^5 and 27.7 pg/10^5 and 31.1 pg/10^5. For the same compound, the “MMP-9 Concentration” value (MMP-9; [7]) was 178.0 pg/mL, the MMP-9 conc/live cell (MMP-9; [7]) was 33.5 pg/10^5 and the “MMP-9 Concentration” value (MMP-9; [8]) was 198.5 pg/mL and 155.2 pg/mL and 180.2 pg/mL. For the same compound, the MMP-9 conc/live cell (MMP-9; [8]) was 34.2 pg/10^5 and 32.3 pg/10^5 and 34.0 pg/10^5, the “MMP-9 Concentration” value (MMP-9; [9]) was 189.3 pg/mL and the MMP-9 conc/live cell (MMP-9; [9]) was 35.1 pg/10^5. The “MMP-9 Concentration” value (MMP-9; [10]) was 198.5 pg/mL and 192.4 pg/mL and 177.1 pg/mL, the MMP-9 conc/live cell (MMP-9; [10]) was 38.2 pg/10^5 and 35.6 pg/10^5 and 31.6 pg/10^5 and the “MMP-9 Concentration” value (MMP-9; [11]) was 139.0 pg/mL. The MMP-9 conc/live cell (MMP-9; [11]) was 22.1 pg/10^5, the “MMP-9 Concentration” value (MMP-9; [12]) was 148.8 pg/mL and 129.2 pg/mL and the MMP-9 conc/live cell (MMP-9; [12]) was 24.0 pg/10^5 and 20.2 pg/10^5. The “Concentration, CCL20/MIP-3 alpha” value (CCL20/MIP-3 alpha; [13]) was 222.1 pg/mL, the “MFI, CCL20/MIP-3 alpha” value (CCL20/MIP-3 alpha; [13]) was 234.3 and the “conc/live cell, CCL20/MIP-3 alpha” value (CCL20/MIP-3 alpha; [13]) was 45.5 pg/10^5. The “Concentration, CCL20/MIP-3 alpha” value (CCL20/MIP-3 alpha; [14]) was 237.5 pg/mL and 214.3 pg/mL and 214.7 pg/mL, the “MFI, CCL20/MIP-3 alpha” value (CCL20/MIP-3 alpha; [14]) was 252.5 and 225.0 and 225.5 and the “conc/live cell, CCL20/MIP-3 alpha” value (CCL20/MIP-3 alpha; [14]) was 54.0 pg/10^5 and 35.7 pg/10^5 and 46.7 pg/10^5. The “Concentration, CCL20/MIP-3 alpha” value (CCL20/MIP-3 alpha; [15]) was 257.4 pg/mL, the “MFI, CCL20/MIP-3 alpha” value (CCL20/MIP-3 alpha; [15]) was 276.3 and the “conc/live cell, CCL20/MIP-3 alpha” value (CCL20/MIP-3 alpha; [15]) was 49.7 pg/10^5. For the same compound, the “Concentration, CCL20/MIP-3 alpha” value (CCL20/MIP-3 alpha; [16]) was 272.1 pg/mL and 235.8 pg/mL and 264.2 pg/mL, the “MFI, CCL20/MIP-3 alpha” value (CCL20/MIP-3 alpha; [16]) was 294.0 and 250.5 and 284.5 and the “conc/live cell, CCL20/MIP-3 alpha” value (CCL20/MIP-3 alpha; [16]) was 60.5 pg/10^5 and 35.7 pg/10^5 and 52.8 pg/10^5. The “Concentration, CCL20/MIP-3 alpha” value (CCL20/MIP-3 alpha; [17]) was 269.5 pg/mL, the “MFI, CCL20/MIP-3 alpha” value (CCL20/MIP-3 alpha; [17]) was 290.8 and the “conc/live cell, CCL20/MIP-3 alpha” value (CCL20/MIP-3 alpha; [17]) was 50.0 pg/10^5. The “Concentration, CCL20/MIP-3 alpha” value (CCL20/MIP-3 alpha; [18]) was 269.6 pg/mL and 266.7 pg/mL and 272.1 pg/mL, the “MFI, CCL20/MIP-3 alpha” value (CCL20/MIP-3 alpha; [18]) was 291.0 and 287.5 and 294.0 and the “conc/live cell, CCL20/MIP-3 alpha” value (CCL20/MIP-3 alpha; [18]) was 53.9 pg/10^5 and 47.6 pg/10^5 and 48.6 pg/10^5. The “Concentration, CCL20/MIP-3 alpha” value (CCL20/MIP-3 alpha; [19]) was 257.7 pg/mL, the “MFI, CCL20/MIP-3 alpha” value (CCL20/MIP-3 alpha; [19]) was 276.7 and the “conc/live cell, CCL20/MIP-3 alpha” value (CCL20/MIP-3 alpha; [19]) was 48.8 pg/10^5. The “Concentration, CCL20/MIP-3 alpha” value (CCL20/MIP-3 alpha; [20]) was 267.1 pg/mL and 251.7 pg/mL and 254.2 pg/mL, the “MFI, CCL20/MIP-3 alpha” value (CCL20/MIP-3 alpha; [20]) was 288.0 and 269.5 and 272.5 and the “conc/live cell, CCL20/MIP-3 alpha” value (CCL20/MIP-3 alpha; [20]) was 46.1 pg/10^5 and 52.4 pg/10^5 and 48.0 pg/10^5. For the same compound, the “Concentration, CCL20/MIP-3 alpha” value (CCL20/MIP-3 alpha; [21]) was 267.8 pg/mL, the “MFI, CCL20/MIP-3 alpha” value (CCL20/MIP-3 alpha; [21]) was 288.8 and the “conc/live cell, CCL20/MIP-3 alpha” value (CCL20/MIP-3 alpha; [21]) was 49.6 pg/10^5. The “Concentration, CCL20/MIP-3 alpha” value (CCL20/MIP-3 alpha; [22]) was 260.1 pg/mL and 260.9 pg/mL and 282.4 pg/mL, the “MFI, CCL20/MIP-3 alpha” value (CCL20/MIP-3 alpha; [22]) was 279.5 and 280.5 and 306.5 and the “conc/live cell, CCL20/MIP-3 alpha” value (CCL20/MIP-3 alpha; [22]) was 50.0 pg/10^5 and 48.3 pg/10^5 and 50.4 pg/10^5. For the same compound, the “Concentration, CCL20/MIP-3 alpha” value (CCL20/MIP-3 alpha; [23]) was 358.3 pg/mL, the “MFI, CCL20/MIP-3 alpha” value (CCL20/MIP-3 alpha; [23]) was 399.5 and the “conc/live cell, CCL20/MIP-3 alpha” value (CCL20/MIP-3 alpha; [23]) was 56.9 pg/10^5. For the same compound, the “Concentration, CCL20/MIP-3 alpha” value (CCL20/MIP-3 alpha; [24]) was 381.7 pg/mL and 334.8 pg/mL, the “MFI, CCL20/MIP-3 alpha” value (CCL20/MIP-3 alpha; [24]) was 428.5 and 370.5 and the “conc/live cell, CCL20/MIP-3 alpha” value (CCL20/MIP-3 alpha; [24]) was 61.6 pg/10^5 and 52.3 pg/10^5.
